Source: PubChem BioAssay (NCI)
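Test compounds were applied to cells in 96-well plates for 48 hours at 5 doses. GI50 is the concentration that inhibits growth by half. TGI marks complete inhibition of growth.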

Tests used:
Assay in all cases: DTP human tumour cell line panel, 48 h
[1] = tested on: MDA-MB-231 breast
[2] = tested on: NCI-H226 lung
[3] = tested on: NCI-H522 lung
[4] = tested on: SN12C renal
[5] = tested on: PC-3 prostate
[6] = tested on: SNB-75 CNS
[7] = tested on: SR leukemia
[8] = tested on: HCC-2998 colon
[9] = tested on: MCF7 breast
[10] = tested on: OVCAR-8 ovarian
[11] = tested on: HOP-62 NSCLC
[12] = tested on: UACC-257 melanoma
[13] = tested on: NCI-H460 lung
[14] = tested on: RPMI-8226 leukemia
[15] = tested on: SK-MEL-2 melanoma
[16] = tested on: MOLT-4 leukemia
[17] = tested on: RXF 393 renal
[18] = tested on: SF-295 CNS
[19] = tested on: EKVX NSCLC
[20] = tested on: SF-268 CNS
[21] = tested on: HS 578T breast
[22] = tested on: M14 melanoma
[23] = tested on: NCI/ADR-RES ovarian
[24] = tested on: COLO 205 colon
[25] = tested on: OVCAR-4 ovarian
[26] = tested on: HOP-92 NSCLC
[27] = tested on: KM12 colon
[28] = tested on: DU-145 prostate
[29] = tested on: SF-539 CNS
[30] = tested on: HT29 colon
[31] = tested on: SK-OV-3 ovarian
[32] = tested on: MALME-3M melanoma
[33] = tested on: ACHN renal
[34] = tested on: MDA-MB-435
[35] = tested on: SK-MEL-5 melanoma
[36] = tested on: HCT-116 colon
[37] = tested on: IGROV1 ovarian
[38] = tested on: SK-MEL-28 melanoma
[39] = tested on: UO-31 renal
[40] = tested on: 786-0 renal
[41] = tested on: A498 renal
[42] = tested on: UACC-62 melanoma
[43] = tested on: BT-549 breast
[44] = tested on: HL-60(TB) leukemia
[45] = tested on: TK-10 renal
[46] = tested on: A549 NSCLC
[47] = tested on: U251 CNS
[48] = tested on: HCT-15 colon
[49] = tested on: SNB-19 CNS
[50] = tested on: T-47D breast
[51] = tested on: K-562 leukemia
[52] = tested on: OVCAR-5 ovarian
[53] = tested on: SW-620 colon
[54] = tested on: CAKI-1 renal
[55] = tested on: NCI-H23 lung
[56] = tested on: LOX IMVI melanoma
[57] = tested on: CCRF-CEM leukemia
[58] = tested on: OVCAR-3 ovarian

COc1cc(/C=N/NC(=O)c2cnn3c2NC(c2ccccc2)C3)ccc1OCc1ccccc1 (stereo unspecified)
GI50 [1]: 2170 nM | TGI [1]: 9.39 µM | GI50 [2]: 2170 nM | TGI [2]: 21.8 µM | GI50 [3]: 391 nM | TGI [3]: 3.9 µM | GI50 [4]: 2260 nM | TGI [4]: 11 µM | GI50 [5]: 967 nM | TGI [5]: 3.23 µM | GI50 [6]: 595 nM | TGI [6]: 2240 nM | GI50 [7]: 214 nM | TGI [7]: 5.05 µM | GI50 [8]: 2350 nM | TGI [8]: 24.5 µM | GI50 [9]: 365 nM | TGI [9]: 14.6 µM | GI50 [10]: 2150 nM | TGI [10]: 9.54 µM | GI50 [11]: 1200 nM | TGI [11]: 4.27 µM | GI50 [12]: 1460 nM | TGI [12]: 11 µM | GI50 [13]: 437 nM | TGI [13]: 1660 nM | GI50 [14]: 955 nM | TGI [14]: 23.6 µM | GI50 [15]: 1320 nM | TGI [15]: 7.09 µM | GI50 [16]: 1140 nM | TGI [16]: 12.2 µM | GI50 [17]: 1290 nM | TGI [17]: 3.96 µM | GI50 [18]: 453 nM | TGI [18]: 2110 nM | GI50 [19]: 1480 nM | TGI [19]: 12.4 µM | GI50 [20]: 2420 nM | TGI [20]: 16.7 µM | GI50 [21]: 908 nM | TGI [21]: 3.3 µM | GI50 [22]: 695 nM | TGI [22]: 4.45 µM | GI50 [23]: 1510 nM | TGI [23]: 10.9 µM | GI50 [24]: 953 nM | TGI [24]: 4.22 µM | GI50 [25]: 1200 nM | TGI [25]: 3.08 µM | GI50 [26]: 1480 nM | TGI [26]: 5.77 µM | GI50 [27]: 412 nM | TGI [27]: 2350 nM | GI50 [28]: 1470 nM | TGI [28]: 6.4 µM | GI50 [29]: 524 nM | TGI [29]: 2290 nM | GI50 [30]: 430 nM | TGI [30]: 4.33 µM | GI50 [31]: 1710 nM | TGI [31]: 11.1 µM | GI50 [32]: 616 nM | TGI [32]: 3.7 µM | GI50 [33]: 903 nM | TGI [33]: 6.99 µM | GI50 [34]: 158 nM | TGI [34]: 950 nM | GI50 [35]: 663 nM | TGI [35]: 2800 nM | GI50 [36]: 1180 nM | TGI [36]: 11.7 µM | GI50 [37]: 992 nM | TGI [37]: 7.26 µM | GI50 [38]: 1360 nM | TGI [38]: 5.11 µM | GI50 [39]: 1280 nM | TGI [39]: 8.87 µM | GI50 [40]: 1160 nM | TGI [40]: 4.03 µM | GI50 [41]: 226 nM | TGI [41]: 2500 nM | GI50 [42]: 679 nM | TGI [42]: 7.14 µM | GI50 [43]: 571 nM | TGI [43]: 4.85 µM | GI50 [44]: 328 nM | TGI [44]: 7.54 µM | GI50 [45]: 1760 nM | TGI [45]: 5.94 µM | GI50 [46]: 1170 nM | TGI [46]: 3.75 µM | GI50 [47]: 1140 nM | TGI [47]: 3.07 µM | GI50 [48]: 461 nM | TGI [48]: 6.68 µM | GI50 [49]: 1250 nM | TGI [49]: 13.7 µM | GI50 [50]: 1220 nM | TGI [50]: > 37.5 µM | GI50 [51]: 293 nM | TGI [51]: 15.3 µM | GI50 [52]: 2110 nM | TGI [52]: 10.6 µM | GI50 [53]: 569 nM | TGI [53]: 2760 nM | GI50 [54]: 597 nM | TGI [54]: 3.99 µM | GI50 [55]: 1200 nM | TGI [55]: 6.12 µM | GI50 [56]: 573 nM | TGI [56]: 2790 nM | GI50 [57]: 712 nM | TGI [57]: > 100 µM | GI50 [58]: 331 nM | TGI [58]: 1340 nM
